The results in this text go back to ChEMBL document CHEMBL2069226, “N-Aryl pyrrolidinonyl oxadiazoles as potent mGluR5 positive allosteric modulators” (Bioorg Med Chem Lett, 2012).

Data set [1] deals with T1, Metabotropic glutamate receptor 5 (Homo sapiens, UniProt P41594). Nature of the data set: Positive allosteric modulation of human mGluR5 expressed in HEK293A cells assessed as stimulation of glutamate-induced calcium flux by FLIPR method. The class given is functional, cell-based, HEK293-A. For orientation: A change in cytosolic calcium serves as a functional read-out for many receptors and channels.

Data set [2] concerns the target T1, Metabotropic glutamate receptor 5. Put plainly: Displacement of [3H]NAM from mGluR5.
Data set [3] shares this target. Nature of the data set: Negative allosteric modulation of human mGluR5 expressed in HEK293A cells assessed as inhibition of glutamate-induced calcium flux by FLIPR method. The format is functional, cell-based, HEK293-A.
Data set [4] is described as follows: Solubility of the compound in […] by UPLC method. The format is physicochemical.
Data set [5] in a line: Drug uptake in rat brain at 10 mg/kg, ip administered as single dose after 1 hr. The class given is ADME, organism-based. Set-up: dose 10 mg/kg, route intraperitoneal. As to conditions: read-out: Drug uptake.
The nature of data set [6]: Plasma concentration in rat at 10 mg/kg, ip administered as single dose after 1 hr. The class given is ADME, organism-based. Set-up: dose 10 mg/kg, route intraperitoneal.
Data set [7] deals with Liver. Nature of the data set: Intrinsic clearance in human liver. The format is ADME, tissue-based.
The subject of data set [8] is Liver. Put plainly: Intrinsic clearance in rat liver. The format is ADME, tissue-based.
The nature of data set [9]: Plasma protein binding in human plasma. The format is ADME, cell-free. As to conditions: read-out: PPB (converted).
Data set [10] is described as follows: Plasma protein binding in rat plasma. Conditions: read-out: PPB (converted). The format is ADME, cell-free.
Data set [11] in a line: Ratio of drug uptake in brain to plasma in rat at 10 mg/kg, ip administered as single dose after 1 hr. Conditions: read-out: BPR. The format is ADME, organism-based. Set-up: dose 10 mg/kg, route intraperitoneal.
A short description of data set [12]: Apparent permeability from apical to basolateral direction in MDCKI cells expressing MDR. As to conditions: dog, MDCK-MDR1. The format is ADME, cell-based, Canis lupus familiaris.
A short description of data set [13]: Apparent permeability from basolateral to apical direction in MDCKI cells expressing MDR. The class given is ADME, cell-based, Canis lupus familiaris. Conditions: dog, MDCK-MDR1.
The next data set concerns the target T2, Cytochrome P450 1A2 (Homo sapiens, UniProt P05177).
T2 sequence (P05177 whole entry): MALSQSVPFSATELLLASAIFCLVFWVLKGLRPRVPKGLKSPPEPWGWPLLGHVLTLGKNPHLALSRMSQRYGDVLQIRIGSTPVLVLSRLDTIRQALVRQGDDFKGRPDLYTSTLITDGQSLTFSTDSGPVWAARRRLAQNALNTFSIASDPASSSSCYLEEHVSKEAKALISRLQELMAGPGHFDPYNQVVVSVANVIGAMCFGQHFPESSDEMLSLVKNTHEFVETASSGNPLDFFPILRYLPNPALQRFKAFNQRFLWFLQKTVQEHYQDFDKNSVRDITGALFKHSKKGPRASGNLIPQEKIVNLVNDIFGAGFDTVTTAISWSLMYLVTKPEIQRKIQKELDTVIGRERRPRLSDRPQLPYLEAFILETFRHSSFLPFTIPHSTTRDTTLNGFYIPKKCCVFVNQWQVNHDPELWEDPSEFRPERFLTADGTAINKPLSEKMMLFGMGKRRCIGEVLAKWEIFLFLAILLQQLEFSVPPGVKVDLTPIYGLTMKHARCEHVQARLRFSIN
Nature of the data set: Inhibition of CYP1A2. The class given is ADME.

A further data set deals with Cytochrome P450 2C9 (Homo sapiens, UniProt P11712). Put plainly: Inhibition of CYP2C9. The class given is ADME.
Another data set has as its target Cytochrome P450 2C19 (Homo sapiens, UniProt P33261). Put plainly: Inhibition of CYP2C19. The format is ADME.
The next data set concerns the target Cytochrome P450 2D6 (Homo sapiens, UniProt P10635). Nature of the data set: Inhibition of CYP2D6. The format is ADME.
A further data set addresses Cytochrome P450 3A4 (Homo sapiens, UniProt P08684). Nature of the data set: Inhibition of CYP3A4. The class given is ADME.

SMILES strings stand for the structures. Values after ≈ are worked out from the molar mass of the structure shown. Some results are limits rather than exact numbers.

T1 sequence (P41594 whole entry): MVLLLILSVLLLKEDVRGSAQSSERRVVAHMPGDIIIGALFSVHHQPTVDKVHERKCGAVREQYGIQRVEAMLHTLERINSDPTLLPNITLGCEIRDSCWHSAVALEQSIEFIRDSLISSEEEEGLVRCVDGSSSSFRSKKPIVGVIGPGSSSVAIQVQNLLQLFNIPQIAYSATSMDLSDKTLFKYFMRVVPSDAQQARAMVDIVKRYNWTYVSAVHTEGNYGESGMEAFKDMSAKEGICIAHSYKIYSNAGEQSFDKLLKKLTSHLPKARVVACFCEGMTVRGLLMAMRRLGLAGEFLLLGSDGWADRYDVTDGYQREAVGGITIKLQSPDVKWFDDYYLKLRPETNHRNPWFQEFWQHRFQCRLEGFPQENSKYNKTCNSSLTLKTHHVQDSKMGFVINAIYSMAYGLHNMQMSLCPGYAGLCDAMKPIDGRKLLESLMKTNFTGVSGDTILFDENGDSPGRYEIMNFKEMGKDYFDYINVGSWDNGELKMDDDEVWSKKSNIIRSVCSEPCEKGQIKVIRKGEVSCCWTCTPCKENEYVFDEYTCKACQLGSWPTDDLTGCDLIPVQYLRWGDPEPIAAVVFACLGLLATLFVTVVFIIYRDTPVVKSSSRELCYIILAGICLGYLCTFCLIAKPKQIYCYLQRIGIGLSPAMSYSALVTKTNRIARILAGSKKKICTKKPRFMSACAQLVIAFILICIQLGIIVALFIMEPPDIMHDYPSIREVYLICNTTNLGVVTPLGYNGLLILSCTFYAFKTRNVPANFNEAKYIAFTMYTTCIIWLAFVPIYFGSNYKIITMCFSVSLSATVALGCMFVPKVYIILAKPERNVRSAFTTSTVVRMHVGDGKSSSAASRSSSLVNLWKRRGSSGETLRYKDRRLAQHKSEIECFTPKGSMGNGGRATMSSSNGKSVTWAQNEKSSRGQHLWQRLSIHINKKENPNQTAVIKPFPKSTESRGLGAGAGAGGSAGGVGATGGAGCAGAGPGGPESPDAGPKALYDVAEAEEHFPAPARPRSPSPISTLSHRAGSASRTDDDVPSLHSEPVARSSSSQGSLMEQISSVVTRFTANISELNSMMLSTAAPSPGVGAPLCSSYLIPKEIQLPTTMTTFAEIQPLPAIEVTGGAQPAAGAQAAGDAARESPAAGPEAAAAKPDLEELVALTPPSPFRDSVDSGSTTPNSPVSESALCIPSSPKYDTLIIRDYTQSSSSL
Sequence of Cytochrome P450 2C19 (P33261 whole entry): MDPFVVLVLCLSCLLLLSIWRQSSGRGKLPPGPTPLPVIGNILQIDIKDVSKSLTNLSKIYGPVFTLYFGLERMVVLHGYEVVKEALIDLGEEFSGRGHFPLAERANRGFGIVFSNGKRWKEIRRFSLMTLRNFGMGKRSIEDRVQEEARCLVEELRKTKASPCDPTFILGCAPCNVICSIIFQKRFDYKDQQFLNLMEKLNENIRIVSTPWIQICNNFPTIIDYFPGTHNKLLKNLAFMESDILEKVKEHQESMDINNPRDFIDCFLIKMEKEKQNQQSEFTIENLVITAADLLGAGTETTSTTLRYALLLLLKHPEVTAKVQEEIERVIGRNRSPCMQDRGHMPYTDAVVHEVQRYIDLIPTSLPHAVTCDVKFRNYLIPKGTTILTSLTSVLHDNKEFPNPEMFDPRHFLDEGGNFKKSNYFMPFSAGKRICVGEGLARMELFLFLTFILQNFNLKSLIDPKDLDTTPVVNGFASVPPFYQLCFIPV
Sequence of Cytochrome P450 2C9 (P11712 whole entry): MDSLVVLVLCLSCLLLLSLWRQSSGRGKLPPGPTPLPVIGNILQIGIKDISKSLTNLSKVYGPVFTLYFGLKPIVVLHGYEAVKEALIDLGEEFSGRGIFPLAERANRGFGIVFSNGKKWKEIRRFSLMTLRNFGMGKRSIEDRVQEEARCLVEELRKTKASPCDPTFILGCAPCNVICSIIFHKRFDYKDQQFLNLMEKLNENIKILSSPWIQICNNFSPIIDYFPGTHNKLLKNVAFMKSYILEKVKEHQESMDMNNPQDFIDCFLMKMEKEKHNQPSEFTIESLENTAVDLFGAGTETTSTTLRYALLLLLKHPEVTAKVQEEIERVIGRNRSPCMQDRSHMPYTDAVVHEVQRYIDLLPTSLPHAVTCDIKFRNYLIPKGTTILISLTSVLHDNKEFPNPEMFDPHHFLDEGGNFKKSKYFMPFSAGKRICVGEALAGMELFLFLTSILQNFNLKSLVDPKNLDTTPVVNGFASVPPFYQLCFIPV
Sequence of Cytochrome P450 2D6 (P10635 whole entry): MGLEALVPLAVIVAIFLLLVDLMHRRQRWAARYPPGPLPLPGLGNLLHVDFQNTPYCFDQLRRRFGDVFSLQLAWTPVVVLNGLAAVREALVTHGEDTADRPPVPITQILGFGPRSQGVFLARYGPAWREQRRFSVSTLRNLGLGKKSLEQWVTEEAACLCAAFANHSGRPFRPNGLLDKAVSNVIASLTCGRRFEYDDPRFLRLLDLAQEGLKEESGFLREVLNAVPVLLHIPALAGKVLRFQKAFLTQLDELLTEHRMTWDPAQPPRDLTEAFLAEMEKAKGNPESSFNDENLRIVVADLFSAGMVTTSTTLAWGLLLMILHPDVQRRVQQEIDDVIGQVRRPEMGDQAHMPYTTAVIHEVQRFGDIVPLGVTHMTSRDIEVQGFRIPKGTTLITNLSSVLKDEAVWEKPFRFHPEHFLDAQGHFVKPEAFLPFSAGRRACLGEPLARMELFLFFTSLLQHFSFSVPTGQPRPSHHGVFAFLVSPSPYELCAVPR
Sequence of Cytochrome P450 3A4 (P08684 whole entry): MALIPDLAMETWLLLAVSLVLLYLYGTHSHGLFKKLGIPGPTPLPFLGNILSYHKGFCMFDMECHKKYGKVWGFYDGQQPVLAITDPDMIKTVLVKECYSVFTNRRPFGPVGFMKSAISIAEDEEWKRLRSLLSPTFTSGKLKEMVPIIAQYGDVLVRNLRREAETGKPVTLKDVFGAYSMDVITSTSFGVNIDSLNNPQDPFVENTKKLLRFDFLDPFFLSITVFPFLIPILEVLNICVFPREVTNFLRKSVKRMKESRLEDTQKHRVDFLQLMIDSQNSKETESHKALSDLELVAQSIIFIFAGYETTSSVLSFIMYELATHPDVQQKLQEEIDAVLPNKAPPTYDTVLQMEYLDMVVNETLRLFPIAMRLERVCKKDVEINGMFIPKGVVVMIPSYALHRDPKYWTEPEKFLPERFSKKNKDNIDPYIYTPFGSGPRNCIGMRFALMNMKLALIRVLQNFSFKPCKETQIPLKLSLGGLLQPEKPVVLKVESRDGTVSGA

As for `O=C1CC(c2nc(-c3cccc(Cl)c3)no2)CN1c1ccc(F)cc1` (single isomer, unassigned; (-)), in data set [1], the EC50 (usually the concentration giving half of the maximal effect) worked out at 8.8 nM. Moreover, in data set [2], the inhibition constant (Ki) (as a rule, a dissociation constant, usually derived from enzyme kinetics or from competition with a known ligand) was 150 nM.

Consider `O=C1CC(c2nc(-c3cccc(Cl)c3)no2)CN1c1ccc(F)cc1` (racemic), for which the EC50 in [1] is 10.7 nM. The IC50 (commonly the point on the concentration scale where inhibition reaches its midpoint) in [3] was greater than 10000 nM. In data set [4], the solubility – broadly, the dissolved amount per volume that the medium holds – came out at 15 µM (≈ 5.37 µg/mL). In addition, affinity in [2] was put at a Ki of 410 nM. The results for the concentration at 1 h in [5] and in data set [6] were 86 ng/g and 22 ng/mL, respectively. In addition, the CLH in the data set on Liver [7] turned out to be 0.6 L/min; in the data set with Liver [8], 22 mL/min.

Regarding `Cc1cccc(-c2noc(C3CC(=O)N(c4ccc(F)cc4)C3)n2)c1` (single isomer, unassigned; (-)), the EC50 in data set [1] was 5.1 nM. In [2], the inhibitory constant (Ki) was 230 nM. Besides, the fraction unbound in data set [9] is 0.007; in [10] it was 0.003. In addition, the concentration at 1 h stood at 342 ng/g in [5] and 46 ng/mL in [6]. For the same molecule, the Kp at 1 h in data set [11] is 7.5. In addition, in [12], the Papp A→B (as a rule, how fast a substance crosses the layer from the apical side) came out at 20 ×10⁻⁶ cm/s. Further, in data set [13], the apparent permeability from basolateral to apical (Papp B→A) (commonly the apparent permeability from the basolateral to the apical side of a cell layer) worked out at 6.4 ×10⁻⁶ cm/s. Besides, the CLH came to 1 L/min in the data set on Liver [7] and 20 mL/min with Liver [8].

Regarding `O=C1CC(c2nc(-c3cccc(Cl)c3)no2)CN1Cc1ccc(F)cc1` (centres undefined), the half-maximal inhibitory concentration (IC50) in data set [3] is 3600 nM. The molecule also came in with a solubility in [4] of 23 µM (≈ 8.55 µg/mL).

On to `Cc1cccc(-c2noc(C3CC(=O)N(c4ccc(F)cc4)C3)n2)c1` (racemic), for which the EC50 in data set [1] was 12.5 nM. In data set [4], this molecule came in with a solubility of 2.7 µM (≈ 0.911 µg/mL). In addition, the IC50 at Cytochrome P450 1A2, on Cytochrome P450 2C9, against Cytochrome P450 2C19, on Cytochrome P450 2D6 and on Cytochrome P450 3A4 was greater than 11000 nM each time. For the same molecule, the figures for the CLH in the data set with Liver [7] and in the data set with Liver [8] were 2.7 L/min and 27 mL/min, respectively.

`C[C@H](c1ccccc1)N1C[C@H](c2nc(-c3cccc(Cl)c3)no2)CC1=O`: in data set [3], the IC50 was 1600 nM. For the same molecule, the solubility in [4] turned out to be 23 µM (≈ 8.46 µg/mL).
